Earlier results as cited in US8177778B2, “System and method for stabilizing corneal tissue after treatment” (Avedro, Inc., priority 2009, dated 2012).

System: corneal wound healing
Settings: rabbits after excimer laser PRK ablation, M6P drop vs control drop

## O=C[C@@H](O)[C@@H](O)[C@H](O)[C@H](O)COP(=O)(O)O [M6P, Mannose 6-phosphate]
  subepithelial collagen: less subepithelial collagen
At 4 weeks
  corneal haze: significant reduction in corneal haze
